Laboratory results taken from patent US20170240556A1, “BIFLUORODIOXALANE-AMINO-BENZIMIDAZOLE KINASE INHIBITORS FOR THE TREATMENT OF CANCER, AUTOIMMUNEINFLAMMATION AND CNS DISORDERS” (4SC DISCOVERY GMBH, priority 2012, published 2017).

Legend:
[1] = target: Casein kinase 1 delta (CSKN1D) (Homo sapiens, UniProt P48730); experiment: Casein kinase assay, CK1 delta; format: biochemical; settings: recombinant CSKN1D 5 nM, ATP 10 μM
[2] = test system: Hedgehog signaling pathway; experiment: Hedgehog reporter assay (Gli Reporter - NIH3T3 Cell Line); format: cell-based; settings: Mus musculus; Gli reporter NIH3T3 cells, murine SHH stimulation, 24 h; read-out: HH Assay
Protocol: In order to investigate the potency of test compounds to inhibit the Hedgehog signaling pathway, a Gli-Reporter assay was performed.
The “Gli Reporter—NIH3T3 Cell Line” contains the firefly luciferase gene under the control of Gli responsive elements stably integrated into murine NIH3T3 cells (cells purchased from Amsbio). The luciferase expression correlates with activation of the hedgehog signaling pathway. This cell line is validated for its response to stimulation with murine Sonic Hedgehog and to treatment with inhibitors of the hedgehog signaling pathway. A multiplexed viability assay was used to discriminate inhibition on the pathway activity from cell toxicity.
Growth Medium: DMEM, 10% Calf Serum, 1% Penicillin/Streptomycin 500 μg/ml Geneticin (G418 Stock 50 mg/ml).
25.000 cells per well were seeded into a white 96 well plate in 100 μl growth medium and incubated over night at 37° C. and 5% CO2. After removing the supernatant the test compounds and controls (known GLI inhibitor, e.g. GANT-61) were added in different concentrations in a final volume of 45 μl and incubated for 1 h at 37° C. and 5% CO2. For the stimulation of the Hedgehog pathway 5 μl of 10 μg/ml concentrated murine sonic hedgehog (SHH) was added to the cells. A final concentration of 1 μg/ml mSHH and 0.1% DMSO was reached per well. After incubation for 24 h at 37° C. the cells were investigated for viability and reporter activity.
Viability: For the determination of the viability of the treated cells the CellTiter-Fluor Kit from Promega was used. Essentially, only proteases of viable cells are able to cleave the cell-permeant substrate Gly-Phe-AFCoumarin (GF-AFC). By this cleavage the fluorescent AFC is set free and can be detected in a fluorescence reader. For this assay 10 μl of GF-AFC substrate (CellTiter-Fluor, Promega #G6082) was diluted in 2 ml assay buffer from the CellTiter-Fluor Kit and 10 μl of this dilution was added per well to the cells and incubated for 30 min at 37° C. The fluorescence was measured with excitation at 380-400 nm and emission at 505 nm.
Reporter activity: The firefly luciferase reporter activity was detected with the ONE-Glo™ Luciferase Assay System from Promega. For this assay 50 μl ONE-Glo luciferase reagent (Promega #E6120, contains cell lysis buffer and luciferin) was added to each well and incubated at room temperature for 5 min. Luminescence was detected in a plate reader and served as a degree for reporter activity.

[3] = target: Casein kinase 1 epsilon (CSKN1E) (Homo sapiens, UniProt P49674); experiment: Casein kinase assay, CK1 epsilon; format: biochemical; settings: recombinant CSKN1E 30 nM, ATP 10 μM
Casein kinase 1 epsilon (CSKN1E), sequence (P49674 whole entry): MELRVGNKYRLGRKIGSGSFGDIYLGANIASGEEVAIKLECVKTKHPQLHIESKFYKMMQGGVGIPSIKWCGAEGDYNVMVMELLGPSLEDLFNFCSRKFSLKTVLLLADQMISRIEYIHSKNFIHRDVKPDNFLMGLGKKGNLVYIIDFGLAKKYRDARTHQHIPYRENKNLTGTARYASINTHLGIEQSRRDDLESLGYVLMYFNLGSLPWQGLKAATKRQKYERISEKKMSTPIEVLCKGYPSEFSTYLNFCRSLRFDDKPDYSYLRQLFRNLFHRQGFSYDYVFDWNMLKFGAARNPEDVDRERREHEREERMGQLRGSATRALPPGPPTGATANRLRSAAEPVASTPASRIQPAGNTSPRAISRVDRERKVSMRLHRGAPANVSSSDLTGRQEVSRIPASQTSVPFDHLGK

Casein kinase 1 delta (CSKN1D), sequence (P48730 whole entry): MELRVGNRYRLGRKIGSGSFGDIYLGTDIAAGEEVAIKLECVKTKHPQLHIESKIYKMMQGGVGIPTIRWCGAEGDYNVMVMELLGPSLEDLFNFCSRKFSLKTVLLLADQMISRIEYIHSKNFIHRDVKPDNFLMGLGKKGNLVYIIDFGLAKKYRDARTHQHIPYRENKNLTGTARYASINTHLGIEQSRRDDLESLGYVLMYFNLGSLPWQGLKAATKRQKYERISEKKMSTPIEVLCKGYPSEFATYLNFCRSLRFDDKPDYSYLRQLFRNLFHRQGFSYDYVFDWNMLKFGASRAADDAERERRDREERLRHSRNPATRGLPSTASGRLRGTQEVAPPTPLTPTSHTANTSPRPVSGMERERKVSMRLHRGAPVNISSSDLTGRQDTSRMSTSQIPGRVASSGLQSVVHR

| Compound | IC50 [1] | IC50 [2] | IC50 [3] |
| --- | --- | --- | --- |
| O=C(Nc1nc2cc3c(cc2[nH]1)OC(F)(F)O3)c1csc(-c2ccc3c(c2)CCO3)n1 [Compound 3, N-(2,2-difluoro-5H-[1,3]dioxolo[4′,5′:4,5]benzo[1,2-d]imidazol-6-yl)-2-(2,3-dihydrobenzofuran-5-yl)thiazole-4-carboxamide] | < 200 nM | ≤ 500 nM | 200 to 1000 nM |
| O=C(Nc1nc2cc3c(cc2[nH]1)OC(F)(F)O3)c1cccc(-c2cc[nH]n2)c1 [Compound 5B, N-(2,2-difluoro-5H-[1,3]dioxolo[4′,5′:4,5]benzo[1,2-d]imidazol-6-yl)-3-(1H-pyrazol-3-yl)benzamide] | < 200 nM | 1000 to 15000 nM |  |
| O=C(Nc1nc2cc3c(cc2[nH]1)OC(F)(F)O3)c1cccc(N2CCCC2)c1 [Compound 122, N-(2,2-difluoro-5H-[1,3]dioxolo[4′,5′:4,5]benzo[1,2-d]imidazol-6-yl)-3-(pyrrolidin-1-yl)benzamide] | < 200 nM | ≤ 500 nM |  |
| Cc1cc(C)n(-c2cccc(C(=O)Nc3nc4cc5c(cc4[nH]3)OC(F)(F)O5)c2)n1 [Compound 130, N-(2,2-difluoro-5H-[1,3]dioxolo[4′,5′:4,5]benzo[1,2-d]imidazol-6-yl)-3-(3,5-dimethyl-1H-pyrazol-1-yl)benzamide] | < 200 nM | ≤ 500 nM | < 200 nM |
| O=C(Nc1nc2cc3c(cc2[nH]1)OC(F)(F)O3)c1cccc(-c2noc(C3CC3)n2)c1 [Compound 147, 3-(5-cyclopropyl-1,2,4-oxadiazol-3-yl)-N-(2,2-difluoro-5H-[1,3]dioxolo[4′,5′:4,5]benzo[1,2-d]imidazol-6-yl)-benzamide] | < 200 nM | 500 to 1000 nM | < 200 nM |
| O=C(Nc1nc(C(=O)Nc2nc3cc4c(cc3[nH]2)OC(F)(F)O4)cs1)Nc1ccccc1OC(F)(F)F [Compound 26, N-(2,2-difluoro-5H-[1,3]dioxolo[4′,5′:4,5]benzo[1,2-d]imidazol-6-yl)-2-(3-(2-(trifluoromethoxy)phenyl)ureido)thiazole-4-carboxamide] | < 200 nM |  | < 200 nM |
| O=C(Cc1cccc(Cl)c1)Nc1nc2cc3c(cc2[nH]1)OC(F)(F)O3 [Compound 8B, 2-(3-chlorophenyl)-N-(2,2-difluoro-5H-[1,3]dioxolo[4′,5′:4,5]benzo[1,2-d]imidazol-6-yl)acetamide] | < 200 nM |  | < 200 nM |
| O=C(Nc1nc2cc3c(cc2[nH]1)OC(F)(F)O3)c1cn(-c2ccccc2)nc1C(F)(F)F [Compound 16, N-(2,2-difluoro-5H-[1,3]dioxolo[4′,5′:4,5]benzo[1,2-d]imidazol-6-yl)-1-phenyl-3-(trifluoromethyl)-1H-pyrazole-4-carboxamide] | 200 to 1000 nM |  | 200 to 1000 nM |
| COc1cccc(CC(=O)Nc2nc3cc4c(cc3[nH]2)OC(F)(F)O4)c1 [Compound 3B, N-(2,2-difluoro-5H-[1,3]dioxolo[4′,5′:4,5]benzo[1,2-d]imidazol-6-yl)-2-(3-methoxyphenyl)acetamide] | < 200 nM | 500 to 1000 nM | < 200 nM |
| O=C(Nc1nc2cc3c(cc2[nH]1)OC(F)(F)O3)c1csc(-c2ccc3c(c2)OCO3)n1 [Compound 39, 2-(benzo[d][1,3]dioxol-5-yl)-N-(2,2-difluoro-5H-[1,3]dioxolo[4′,5′:4,5]benzo[1,2-d]imidazol-6-yl)thiazole-4-carboxamide] | > 1000 nM |  | 200 to 1000 nM |
| O=C(Nc1nc2cc3c(cc2[nH]1)OC(F)(F)O3)c1csc(-c2ccc3c(c2)CCO3)c1 [Compound 38, N-(2,2-difluoro-5H-[1,3]dioxolo[4′,5′:4,5]benzo[1,2-d]imidazol-6-yl)-5-(2,3-dihydrobenzofuran-5-yl)thiophene-3-carboxamide] | < 200 nM |  | 200 to 1000 nM |
| O=C(Nc1nc2cc3c(cc2[nH]1)OC(F)(F)O3)c1coc(NC(=O)c2ccco2)n1 [Compound 10, N-(2,2-difluoro-5H-[1,3]dioxolo[4′,5′:4,5]benzo[1,2-d]imidazol-6-yl)-2-(furan-2-carboxamido)oxazole-4-carboxamide] | 200 to 1000 nM |  | > 1000 nM |
| O=C(Nc1n[nH]c(C(=O)Nc2nc3cc4c(cc3[nH]2)OC(F)(F)O4)n1)c1ccc(Cl)cc1 [Compound 129, 3-(chlorobenzamido)-N-(2,2-difluoro-5H-[1,3]dioxolo[4′,5′:4,5]benzo[1,2-d]imidazol-6-yl)-1H-1,2,4-triazole-5-carboxamide] | 200 to 1000 nM |  | > 1000 nM |

The remaining lines, values ahead:

| IC50 [1] | IC50 [2] | IC50 [3] | Compound |
| --- | --- | --- | --- |
| < 200 nM | 500 to 1000 nM |  | CN(C)c1cccc(C(=O)Nc2nc3cc4c(cc3[nH]2)OC(F)(F)O4)c1 [Compound 102, N-(2,2-difluoro-5H-[1,3]dioxolo[4′,5′:4,5]benzo[1,2-d]imidazol-6-yl)-3-(dimethylamino)benzamide] |
| < 200 nM | 1000 to 15000 nM |  | CN(C)c1cc(C(=O)Nc2nc3cc4c(cc3[nH]2)OC(F)(F)O4)ccn1 [Compound 125, N-(2,2-difluoro-5H-[1,3]dioxolo[4′,5′:4,5]benzo[1,2-d]imidazol-6-yl)-2-(dimethylamino)isonicotinamide] |
| < 200 nM | 1000 to 15000 nM |  | O=C(Nc1nc2cc3c(cc2[nH]1)OC(F)(F)O3)c1csc(-c2cccs2)n1 [Compound 11B, N-(2,2-difluoro-5H-[1,3]dioxolo[4′,5′:4,5]benzo[1,2-d]imidazol-6-yl)-2-(thiophen-2-yl)thiazole-4-carboxamide] |
| > 1000 nM | 1000 to 15000 nM | > 1000 nM | O=C(Nc1nc2cc3c(cc2[nH]1)OC(F)(F)O3)c1cnccn1 [Compound 27, N-(2,2-difluoro-5H-[1,3]dioxolo[4′,5′:4,5]benzo[1,2-d]imidazol-6-yl)pyrazine-2-carboxamide] |
| > 1000 nM | 1000 to 15000 nM | > 1000 nM | Nc1nccnc1C(=O)Nc1nc2cc3c(cc2[nH]1)OC(F)(F)O3 [Compound 7, 3-amino-N-(2,2-difluoro-5H-[1,3]dioxolo[4′,5′:4,5]benzo[1,2-d]imidazol-6-yl)pyrazine-2-carboxamide] |
| < 200 nM | 500 to 1000 nM | < 200 nM | O=C(Nc1nc2cc3c(cc2[nH]1)OC(F)(F)O3)c1csc(-c2ccco2)n1 [Compound 6B, N-(2,2-difluoro-5H-[1,3]dioxolo[4′,5′:4,5]benzo[1,2-d]imidazol-6-yl)-2-(furan-2-yl)thiazole-4-carboxamide] |
| < 200 nM | 1000 to 15000 nM |  | O=C(Nc1nc2cc3c(cc2[nH]1)OC(F)(F)O3)c1csc(-c2ccoc2)n1 [Compound 16B, N-(2,2-difluoro-5H-[1,3]dioxolo[4′,5′:4,5]benzo[1,2-d]imidazol-6-yl)-2-(furan-3-yl)thiazole-4-carboxamide] |
| < 200 nM | 1000 to 15000 nM |  | CN(C)c1cncc(C(=O)Nc2nc3cc4c(cc3[nH]2)OC(F)(F)O4)c1 [Compound 7B, N-(2,2-difluoro-5H-[1,3]dioxolo[4′,5′:4,5]benzo[1,2-d]imidazol-6-yl)-5-(dimethylamino)nicotinamide] |
| 200 to 1000 nM |  | 200 to 1000 nM | O=C(Nc1nc2cc3c(cc2[nH]1)OC(F)(F)O3)c1cc(-c2ccco2)on1 [Compound 143, N-(2,2-difluoro-5H-[1,3]dioxolo[4′,5′:4,5]benzo[1,2-d]imidazol-6-yl)-5-(furan-2-yl)isoxazole-3-carboxamide] |
| < 200 nM |  | < 200 nM | O=C(Nc1nc2cc3c(cc2[nH]1)OC(F)(F)O3)c1csc([N+](=O)[O-])c1 [Compound 30, N-(2,2-difluoro-5H-[1,3]dioxolo[4′,5′:4,5]benzo[1,2-d]imidazole-6-yl)-5-nitrothiophene-3-carboxamide] |
| < 200 nM |  | < 200 nM | NS(=O)(=O)c1cc(C(=O)Nc2nc3cc4c(cc3[nH]2)OC(F)(F)O4)cs1 [Compound 83, N-(2,2-difluoro-5H-[1,3]dioxolo[4′,5′:4,5]benzo[1,2-d]imidazol-6-yl)-5-sulfamoylthiophene-3-carboxamide] |
| 200 to 1000 nM |  | 200 to 1000 nM | O=C(O)c1cccc(C(=O)Nc2nc3cc4c(cc3[nH]2)OC(F)(F)O4)c1 [Compound 18B, 3-((2,2-Difluoro-5H-[1,3]dioxolo[4′,5′:4,5]benzo[1,2-d]imidazol-6-yl)carbamoyl)benzoic acid] |
| < 200 nM | 500 to 1000 nM | < 200 nM | O=C(Nc1nc2cc3c(cc2[nH]1)OC(F)(F)O3)c1cc(-c2cccs2)on1 [Compound 138, N-(2,2-difluoro-5H-[1,3]dioxolo[4′,5′:4,5]benzo[1,2-d]imidazol-6-yl)-5-(thiophen-2-yl)isoxazole-3-carboxamide] |
